Reference: ChEMBL document CHEMBL1201862, “PubChem BioAssay data set” (2004)
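Tested at 5 concentrations; 48 h exposure; 96-well plates; endpoints linearly interpolated, else capped at highest concentration. GI50 is the concentration that inhibits growth by half.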 Calls of active or inactive are those of the source. Rule as the data show it: active = GI50 up to about 1.1 µM and inactive = higher.

Experiments:
Assay in all cases: growth of human tumour cells (NCI), 48 h
EKVX = system: EKVX
RXF 393 = system: RXF 393
COLO 205 = system: COLO 205
ACHN = system: ACHN
UACC-257 = system: UACC-257
HL-60 = system: HL-60
A498 = system: A498
SK-MEL-28 = system: SK-MEL-28
OVCAR-5 = system: OVCAR-5
SN12C = system: SN12C
NCI-H226 = system: NCI-H226
Malme-3M = system: Malme-3M
OVCAR-4 = system: OVCAR-4
KM12 = system: KM12
DU-145 = system: DU-145
NCI-H460 = system: NCI-H460
U-251 = system: U-251
SR = system: SR
A549 = system: A549
SK-OV-3 = system: SK-OV-3
SNB-19 = system: SNB-19
MOLT-4 = system: MOLT-4
MDA-MB-231 = system: MDA-MB-231
MDA-MB-435 = system: MDA-MB-435
SF-268 = system: SF-268
T47D = system: T47D
NCI-H23 = system: NCI-H23
SW-620 = system: SW-620
SF-295 = system: SF-295
TK-10 = system: TK-10
IGROV-1 = system: IGROV-1
UACC-62 = system: UACC-62
LOX IMVI = system: LOX IMVI
CCRF-CEM = system: CCRF-CEM
OVCAR-3 = system: OVCAR-3
MCF7 = system: MCF7
RPMI-8226 = system: RPMI-8226
SF-539 = system: SF-539
SNB-75 = system: SNB-75
HCC 2998 = system: HCC 2998
786-0 = system: 786-0
CAKI-1 = system: CAKI-1
HCT-15 = system: HCT-15
K562 = system: K562
HT-29 = system: HT-29
HOP-62 = system: HOP-62
MDA-N = system: MDA-N
SK-MEL-5 = system: SK-MEL-5
OVCAR-8 = system: OVCAR-8
UO-31 = system: UO-31
BT-549 = system: BT-549
HCT-116 = system: HCT-116
NCI/ADR-RES = system: NCI/ADR-RES
HOP-92 = system: HOP-92
M14 = system: M14
SK-MEL-2 = system: SK-MEL-2
PC-3 = system: PC-3
Hs-578T = system: Hs-578T
NCI-H522 = system: NCI-H522

Measured: GI50

CS(=O)(=O)OCCn1c(=O)n(CCOS(C)(=O)=O)c(=O)n(CCOS(C)(=O)=O)c1=O
> 100 µM: HCT-15
inactive: EKVX > 100 µM | RXF 393 > 100 µM | COLO 205 > 100 µM | ACHN > 100 µM | UACC-257 > 100 µM | HL-60 > 100 µM | A498 > 100 µM | SK-MEL-28 > 100 µM | OVCAR-5 > 100 µM | SN12C > 100 µM | NCI-H226 > 100 µM | Malme-3M > 100 µM | OVCAR-4 > 100 µM | KM12 > 100 µM | DU-145 > 100 µM | NCI-H460 > 100 µM | U-251 > 100 µM | SR > 100 µM | A549 > 100 µM | SK-OV-3 > 100 µM | SNB-19 > 100 µM | MOLT-4 > 100 µM | MDA-MB-231 > 100 µM | MDA-MB-435 > 100 µM | SF-268 > 100 µM | T47D > 100 µM | NCI-H23 > 100 µM | SW-620 > 100 µM | SF-295 > 100 µM | TK-10 > 100 µM | IGROV-1 > 100 µM | UACC-62 > 100 µM | LOX IMVI 36.3 µM | CCRF-CEM > 100 µM | OVCAR-3 > 100 µM | MCF7 > 100 µM | RPMI-8226 > 100 µM | SF-539 > 100 µM | SNB-75 > 100 µM | HCC 2998 > 100 µM | 786-0 > 100 µM | CAKI-1 > 100 µM | K562 > 100 µM | HT-29 > 100 µM | HOP-62 > 100 µM | MDA-N > 100 µM | SK-MEL-5 > 100 µM | OVCAR-8 > 100 µM | UO-31 > 100 µM | BT-549 > 100 µM | HCT-116 > 100 µM | NCI/ADR-RES > 100 µM

O=C(O)c1c2c(cc3c1CC1(Cc4ccccc4C1=O)C3)CCC2 (stereo not drawn)
inactive: EKVX 33.9 µM | RXF 393 25.8 µM | COLO 205 17.4 µM | ACHN 57 µM | UACC-257 50 µM | HL-60 3.17 µM | A498 33 µM | SK-MEL-28 52 µM | OVCAR-5 65.5 µM | SN12C 46.5 µM | NCI-H226 24.3 µM | HOP-92 25.5 µM | Malme-3M 16.5 µM | M14 18.9 µM | OVCAR-4 27.8 µM | KM12 14.4 µM | DU-145 64 µM | NCI-H460 4.62 µM | SK-MEL-2 19 µM | U-251 29 µM | SR 2.93 µM | A549 11.1 µM | SK-OV-3 47.4 µM | SNB-19 47 µM | MOLT-4 11.4 µM | MDA-MB-231 34.6 µM | MDA-MB-435 3.69 µM | PC-3 27.2 µM | SF-268 59.4 µM | T47D 32.5 µM | NCI-H23 44 µM | SW-620 30.1 µM | SF-295 38.6 µM | TK-10 > 66.7 µM | IGROV-1 > 61.5 µM | UACC-62 21.8 µM | LOX IMVI 23.8 µM | CCRF-CEM 9.91 µM | OVCAR-3 26.1 µM | MCF7 26.2 µM | RPMI-8226 18.4 µM | SF-539 29.7 µM | SNB-75 26.5 µM | HCC 2998 3.33 µM | 786-0 47.5 µM | Hs-578T 34 µM | CAKI-1 41.5 µM | K562 5.79 µM | HT-29 14.8 µM | HOP-62 64.7 µM | SK-MEL-5 19.6 µM | OVCAR-8 44.9 µM | UO-31 38 µM | NCI-H522 22.1 µM | BT-549 33 µM | HCT-116 21.6 µM | NCI/ADR-RES 28.7 µM
14.8 µM: HCT-15

CC1=NN(c2nc(N)nc(C(C)Cl)n2)C(C)(C)C1 (stereo not drawn)
> 100 µM: HCT-15
inactive: EKVX > 100 µM | RXF 393 > 100 µM | COLO 205 > 100 µM | ACHN > 100 µM | UACC-257 > 100 µM | HL-60 > 100 µM | A498 > 100 µM | SK-MEL-28 > 100 µM | NCI-H226 > 100 µM | HOP-92 > 100 µM | M14 > 100 µM | OVCAR-4 > 100 µM | KM12 > 100 µM | DU-145 > 100 µM | NCI-H460 > 100 µM | SK-MEL-2 > 100 µM | U-251 > 100 µM | SR > 100 µM | SK-OV-3 > 100 µM | SNB-19 > 100 µM | MOLT-4 > 100 µM | MDA-MB-231 > 100 µM | MDA-MB-435 > 100 µM | PC-3 > 100 µM | SF-268 > 100 µM | T47D > 100 µM | NCI-H23 > 100 µM | SW-620 > 100 µM | SF-295 > 100 µM | TK-10 > 100 µM | IGROV-1 > 100 µM | UACC-62 > 100 µM | LOX IMVI > 100 µM | CCRF-CEM > 100 µM | MCF7 > 100 µM | RPMI-8226 > 100 µM | SF-539 > 100 µM | SNB-75 > 100 µM | HCC 2998 > 100 µM | 786-0 > 100 µM | Hs-578T > 100 µM | CAKI-1 > 100 µM | K562 85.9 µM | HT-29 > 100 µM | HOP-62 > 100 µM | SK-MEL-5 > 100 µM | OVCAR-8 > 100 µM | UO-31 > 100 µM | BT-549 > 100 µM | HCT-116 > 100 µM | NCI/ADR-RES > 100 µM
